Experimental data published in patent publication US6630343B1, “Hepatitis C virus culture system” (priority 1999, dated 2003).
Starred links: 1 amine or outer side, 2 acyl side, 3 side chain; linkers in the order of their positions; H or OH if unused. Positions of bridges follow the written chain, without caps; N, C: chain ends. Non-standard residues stand in square brackets, D forms with d. Residues, ends and D or L forms follow the SMILES beside them. Chains are numbered I, II in the order given. Actinocin(9to1) = Cc1c2oc3c(C)ccc(C(=O)[*:1])c3nc-2c(C(=O)[*:2])c(N)c1=O; NMeV = CN[C@H](C(=O)O)C(C)C; Sar = CNCC(=O)O

Experiments:
[1] = test system: HCV RNA; assay: [3H] uridine labeling of RNA in the presence of dactinomycin: HCV-RNA replication; format: cell-based, hepatitis C virus; conditions: 4 μg/ml dactinomycin, 16 hrs, clone 9-13
Protocol: (§1) To confirm this assumption, cells were incubated with [^3H] uridine in the presence of dactinomycin, the radioactively labeled RNAs were extracted, separated by means of denaturing agarose gel electrophoresis and analyzed with the aid of a common Bio-Imager using a [^3H]-sensitive screen. For this purpose approx. 5×10^5 cells of the clones 9-13 and 8-1 were incubated at a time with 100 μCi [^3H] uridine for 16 hrs. in the absence (−) or presence (+) of 4 μg/ml of dactinomycin (Dact). Following this labeling reaction the total RNA was prepared and analyzed by means of formaldehyde-agarose gel electrophoresis. Only 1/10 of the total RNA is illustrated in the first two lanes. The radioactively labeled RNA was visualized using a BAS-2500 Bio-Imager (Fuji).

[2] = test system: Huh 7 cell clones 9-13 and 8-1; assay: [3H] uridine labeling of RNA in the presence of dactinomycin: cellular RNA synthesis; format: cell-based, human; conditions: 4 μg/ml dactinomycin, 16 hrs
Protocol: as §1

Structure (SMILES): Cc1c2oc3c(C)ccc(C(=O)N[C@@H]4C(=O)N[C@H](C(C)C)C(=O)N5CCC[C@H]5C(=O)N(C)CC(=O)N(C)[C@@H](C(C)C)C(=O)O[C@@H]4C)c3nc-2c(C(=O)N[C@@H]2C(=O)N[C@H](C(C)C)C(=O)N3CCC[C@H]3C(=O)N(C)CC(=O)N(C)[C@@H](C(C)C)C(=O)O[C@@H]2C)c(N)c1=O [dactinomycin] (I: T[dV]P[Sar][NMeV] / II: T[dV]P[Sar][NMeV]; ester I:1-I:C, II:1-II:C; linker I:N-II:N via Actinocin(9to1))
- influence on the replication of the HCV RNA [1]: no influence
- synthesis of cellular RNA [2]: inhibited
